We go through one compound from US9296778B2, “3′,5′-cyclic phosphate prodrugs for HCV infection” (Idenix Pharmaceuticals, Inc., priority 2012, dated 2016).

Each structure is given as a SMILES string. Some results are limits rather than exact numbers.

Data set [1] can be described thus: Liver pharmacokinetics following a single oral dose in CD-1 mice. The data set is classed as in vivo. The note with it: single oral dose 25 mg/kg in PEG 200, CD-1 male mice; given at 1 μmol/kg. The method in brief: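 Male CD-1 mice given 25 mg/kg test compound orally in PEG 200; liver snap-frozen in situ at 4, 12 and 24 h (3 per time). Liver 2′-MeGTP measured after TCA homogenization and anion-exchange SPE by LC-MS/MS, calibration 50–50000 pmol/g liver.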

The nature of data set [2]: Plasma pharmacokinetics following a single oral dose in CD-1 mice. Type of data set: in vivo. The conditions noted are these: single oral dose 25 mg/kg in PEG 200, CD-1 male mice; given at 1 μmol/kg. The method in brief:
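Male CD-1 mice given a single oral 25 mg/kg dose in PEG 200, with terminal plasma and liver taken from three animals per time point at 4, 12 and 24 h. Plasma 2′-methylguanosine measured by LC-MS/MS in positive ion mode with a deuterated internal standard, calibrated over 0.500 (LLOQ) to 200 ng/mL.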

The nature of data set [3]: in vitro. The note with it: human, HCV Replicon CC50, Zluc cells, CellTiter-Blue. For orientation: In antiviral work, replicon cells carry a viral genome segment that copies itself.

Consider `CCOc1nc(N)nc2c1ncn2[C@@H]1O[C@@H]2COP(=O)(OCCCC(=O)OC(C)C)O[C@H]2[C@@]1(C)F` (single isomer, unassigned) [Compound 20 Diastereomer 1], for which the “Ms Liver 2′-MeGTP AUC” value in data set [1] is reported as 410 pmol · hr/g at 1 μmol/kg. In addition, in data set [2], the “Ms Plasma 2′-MeG AUC” value was found to be 58 pmol · hr/mL at 1 μmol/kg and the “Ms Plasma 2′-MeG Cmax” value was found to be 5.9 pmol/mL at 1 μmol/kg. In data set [3], the half-maximal cytotoxic concentration (CC50) was more than 50 µM.

The CC50 is the concentration at which the toxic effect on the cells reaches its halfway point.
